{"source": "patent US20240109893A1", "about": "“PREPARATION AND APPLICATION METHOD OF HETEROCYCLIC COMPOUNDS AS KRAS INHIBITOR” (SHANGHAI KECHOW PHARMA, INC., priority 2020, published 2024)"}
{"tested_on": "H358 cells", "experiment": "Cell activity experiment: activity test of H358 cells (MTT, 5 days)", "type": "cell-based", "conditions": "Homo sapiens, NCI-H358, 120 h, 5 days incubation, absorbance 492 nm", "how_it_was_run": "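H358 cells seeded 90 μL at 55555 cells/mL, grown 24 h, then exposed to 3-fold serial compound dilutions (final top 10000 nM, 0.5% DMSO) in triplicate for 5 days at 37° C., 5% CO2. Viability by MTT (4 h), formazan dissolved in DMSO, absorbance at 492 nm.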", "units": {"IC50": "nM"}}
{"smiles": "C=C(F)C(=O)N1CCN(c2nc(OCC34CCCN3CCC4)nc3cc(-c4cccc5ccc(F)c(Cl)c45)ccc23)C[C@@H]1CC#N", "note": "[Example 98, (S)-2-(4-(7-(8-chloro-7-fluoronaphthalen-1-yl)-2-((tetrahydro-1H-pyrrolizin-7a(5H)-yl)methoxy)quinazolin-4-yl)-1-(2-fluoroacryloyl)piperazin-2-yl)acetonitrile]", "IC50": 8}
{"smiles": "C=CC(=O)N1CCN(c2nc(OCC34CCCN3C[C@H](F)C4)nc3cc(-c4cccc5ccc(F)c(Cl)c45)ccc23)C[C@@H]1CC#N", "note": "(some centres unmarked) [Example 99]", "IC50": 0.34}
{"smiles": "C=C(F)C(=O)N1CCN(c2nc(OCC34CCCN3C[C@H](F)C4)nc3cc(-c4cccc5ccc(F)c(Cl)c45)ccc23)C[C@@H]1CC#N", "note": "(some centres unmarked) [Example 100]", "IC50": 6}
{"smiles": "C=CC(=O)N1CC[C@@H]2[C@H]1CN2c1nc(OC[C@@H]2CCCN2C)nc2cc(-c3cccc4ccc(F)c(Cl)c34)ccc12", "note": "[Example 101, 1-((1R,5R)-6-(7-(8-chloro-7-fluoronaphthalen-1-yl)-2-(((S)-1-methylpyrrolidin-2-yl)methoxy)quinazolin-4-yl)-2,6-diazabicyclo[3.2.0]hept-2-yl)prop-2-en-1-one]", "IC50": 5}
{"smiles": "C=CC(=O)N1CCN(c2nc(Oc3cccc4c3CCN(C)C4)nc3cc(-c4cccc5c4CCCC5)ccc23)C[C@@H]1CC#N", "note": "[Example 109]", "IC50": 287}
{"smiles": "C=CC(=O)N1CCN(c2nc(OC[C@@H]3CCCN3C)nc3cc(-c4cccc5c4CCCC5)ccc23)C[C@@H]1CC#N", "note": "[Example 110, 2-((S)-1-acryloyl-4-(2-(((S)-1-methylpyrrolidin-2-yl)methoxy)-7-(5,6,7,8-tetrahydronaphthalen-1-yl)quinazolin-4-yl)piperazin-2-yl)acetonitrile]", "IC50": 35}
{"smiles": "C=C(F)C(=O)N1CCN(c2nc(OC[C@@H]3CCCN3C)nc3cc(-c4cccc5c4CCCC5)ccc23)C[C@@H]1CC#N", "note": "[Example 111]", "IC50": 140}
{"smiles": "C=CC(=O)N1CCN(c2nc(OC[C@@H]3C[C@@H](F)CN3C)nc3cc(-c4cccc5c4CCCC5)ccc23)C[C@@H]1CC#N", "note": "[Example 112]", "IC50": 38}
{"smiles": "C=C(F)C(=O)N1CCN(c2nc(OC[C@@H]3C[C@@H](F)CN3C)nc3cc(-c4cccc5c4CCCC5)ccc23)C[C@@H]1CC#N", "note": "[Example 113]", "IC50": 150}
{"smiles": "C=CC(=O)N1CCN(c2nc(OCC34CCCN3CCC4)nc3cc(-c4cccc5c4CCCC5)ccc23)C[C@@H]1CC#N", "note": "[Example 114, (S)-2-(1-acryloyl-4-(2-((tetrahydro-1H-pyrrolizin-7a(5H)-yl)methoxy)-7-(5,6,7,8-tetrahydronaphthalen-1-yl)quinazolin-4-yl)piperazin-2-yl)acetonitrile]", "IC50": 20}
{"smiles": "C=C(F)C(=O)N1CCN(c2nc(OCC34CCCN3CCC4)nc3cc(-c4cccc5c4CCCC5)ccc23)C[C@@H]1CC#N", "note": "[Example 115]", "IC50": 45}
{"smiles": "C=CC(=O)N1CCN(c2nc(OCC34CCCN3C[C@H](F)C4)nc3cc(-c4cccc5c4CCCC5)ccc23)C[C@@H]1CC#N", "note": "(some centres unmarked) [Example 116]", "IC50": 15}
{"smiles": "C=C(F)C(=O)N1CCN(c2nc(OCC34CCCN3C[C@H](F)C4)nc3cc(-c4cccc5c4CCCC5)ccc23)C[C@@H]1CC#N", "note": "(some centres unmarked) [Example 117]", "IC50": 30}
{"smiles": "C=CC(=O)N1CCN(c2nc(OC[C@@H]3CCCN3C)nc3cc(-c4cncc5cccc(Cl)c45)ccc23)C[C@@H]1CC#N", "note": "[Example 126, 2-((S)-1-acryloyl-4-(7-(5-chloroisoquinolin-4-yl)-2-((((S)-1-methylpyrrolidin-2-yl)methoxy)quinazolin-4-yl])piperazin-2-yl)acetonitrile]", "IC50": 18}
{"smiles": "C=C(F)C(=O)N1CCN(c2nc(OC[C@@H]3CCCN3C)nc3cc(-c4cncc5cccc(Cl)c45)ccc23)C[C@@H]1CC#N", "note": "[Example 127]", "IC50": 72}
{"smiles": "C=CC(=O)N1CCN(c2nc(OC[C@@H]3C[C@@H](F)CN3C)nc3cc(-c4cncc5cccc(Cl)c45)ccc23)C[C@@H]1CC#N", "note": "[Example 128, 2-((S)-1-acryloyl-4-(7-(5-chloroisoquinolin-4-yl)-2-((((2S,4R)-4-fluoro-1-methylpyrrolidin-2-yl)methoxy))quinazolin-4-yl)piperazin-2-yl)acetonitrile]", "IC50": 20}
{"smiles": "C=C(F)C(=O)N1CCN(c2nc(OC[C@@H]3C[C@@H](F)CN3C)nc3cc(-c4cncc5cccc(Cl)c45)ccc23)C[C@@H]1CC#N", "note": "[Example 129]", "IC50": 50}
{"smiles": "C=CC(=O)N1CCN(c2nc(OCC34CCCN3CCC4)nc3cc(-c4cncc5cccc(Cl)c45)ccc23)C[C@@H]1CC#N", "note": "[Example 130, (S)-2-(1-acryloyl-4-(7-(5-chloroisoquinolin-4-yl)-2-((tetrahydro-1H-pyrrolizin-7a(5H)-yl)methoxy)quinazolin-4-yl)piperazin-2-yl)acetonitrile]", "IC50": 8}
{"smiles": "C=C(F)C(=O)N1CCN(c2nc(OCC34CCCN3CCC4)nc3cc(-c4cncc5cccc(Cl)c45)ccc23)C[C@@H]1CC#N", "note": "[Example 131, (S)-2-(4-(7-(5-chloroisoquinolin-4-yl)-2-((tetrahydro-1H-pyrrolizin-7a(5H)-yl)methoxy)quinazolin-4-yl)-1-(2-fluoroacryloyl)piperazin-2-yl)acetonitrile]", "IC50": 16}
{"smiles": "C=CC(=O)N1CCN(c2nc(OCC34CCCN3C[C@H](F)C4)nc3cc(-c4cncc5cccc(Cl)c45)ccc23)C[C@@H]1CC#N", "note": "(some centres unmarked) [Example 132]", "IC50": 3}
{"smiles": "C=C(F)C(=O)N1CCN(c2nc(OCC34CCCN3C[C@H](F)C4)nc3cc(-c4cncc5cccc(Cl)c45)ccc23)C[C@@H]1CC#N", "note": "(some centres unmarked) [Example 133]", "IC50": 8}
{"smiles": "C=CC(=O)N1CCN(c2nc(OC[C@@H]3CCCN3C)nc3cc(-c4cncc5c4CCCC5)ccc23)C[C@@H]1CC#N", "note": "[Example 142]", "IC50": 20}
{"smiles": "C=C(F)C(=O)N1CCN(c2nc(OC[C@@H]3CCCN3C)nc3cc(-c4cncc5c4CCCC5)ccc23)C[C@@H]1CC#N", "note": "[Example 143]", "IC50": 80}
{"smiles": "C=CC(=O)N1CCN(c2nc(OC[C@@H]3C[C@@H](F)CN3C)nc3cc(-c4cncc5c4CCCC5)ccc23)C[C@@H]1CC#N", "note": "[Example 144]", "IC50": 25}
{"smiles": "C=C(F)C(=O)N1CCN(c2nc(OC[C@@H]3C[C@@H](F)CN3C)nc3cc(-c4cncc5c4CCCC5)ccc23)C[C@@H]1CC#N", "note": "[Example 145]", "IC50": 102}
{"smiles": "C=CC(=O)N1CCN(c2nc(OCC34CCCN3CCC4)nc3cc(-c4cncc5c4CCCC5)ccc23)C[C@@H]1CC#N", "note": "[Example 146, (S)-2-(1-acryloyl-4-(2-((tetrahydro-1H-pyrrolizin-7a(5H)-yl)methoxy)-7-(5,6,7,8-tetrahydroisoquinolin-4-yl)quinazolin-4-yl)piperazin-2-yl)acetonitrile]", "IC50": 10}
{"smiles": "C=C(F)C(=O)N1CCN(c2nc(OCC34CCCN3CCC4)nc3cc(-c4cncc5c4CCCC5)ccc23)C[C@@H]1CC#N", "note": "[Example 147]", "IC50": 18}
{"smiles": "C=CC(=O)N1CCN(c2nc(OCC34CCCN3C[C@H](F)C4)nc3cc(-c4cncc5c4CCCC5)ccc23)C[C@@H]1CC#N", "note": "(some centres unmarked) [Example 148]", "IC50": 5}
{"smiles": "C=C(F)C(=O)N1CCN(c2nc(OCC34CCCN3C[C@H](F)C4)nc3cc(-c4cncc5c4CCCC5)ccc23)C[C@@H]1CC#N", "note": "(some centres unmarked) [Example 149]", "IC50": 10}
{"smiles": "C=CC(=O)N1CCN(c2nc(OC[C@@H]3CCCN3C)nc3c(F)c(-c4cncc5cccc(Cl)c45)ccc23)C[C@@H]1CC#N", "note": "[Example 158, 2-((S)-1-acryloyl-4-(7-(5-chloroisoquinolin-4-yl)-8-fluoro-2-(((S)-1-methylpyrrolidin-2-yl)methoxy)quinazolin-4-yl)piperazin-2-yl)acetonitrile]", "IC50": 4}
{"smiles": "C=C(F)C(=O)N1CCN(c2nc(OC[C@@H]3CCCN3C)nc3c(F)c(-c4cncc5cccc(Cl)c45)ccc23)C[C@@H]1CC#N", "note": "[Example 159]", "IC50": 18}
{"smiles": "C=CC(=O)N1CCN(c2nc(OC[C@@H]3C[C@@H](F)CN3C)nc3c(F)c(-c4cncc5cccc(Cl)c45)ccc23)C[C@@H]1CC#N", "note": "[Example 160]", "IC50": 5}
{"smiles": "C=C(F)C(=O)N1CCN(c2nc(OC[C@@H]3C[C@@H](F)CN3C)nc3c(F)c(-c4cncc5cccc(Cl)c45)ccc23)C[C@@H]1CC#N", "note": "[Example 161]", "IC50": 20}
{"smiles": "C=CC(=O)N1CCN(c2nc(OCC34CCCN3CCC4)nc3c(F)c(-c4cncc5cccc(Cl)c45)ccc23)C[C@@H]1CC#N", "note": "[Example 162, (S)-2-(1-acryloyl-4-(7-(5-chloroisoquinolin-4-yl)-8-fluoro-2-((tetrahydro-1H-pyrrolizin-7a(5H)-yl)methoxy)quinazolin-4-yl)piperazin-2-yl)acetonitrile]", "IC50": 2}
{"smiles": "C=C(F)C(=O)N1CCN(c2nc(OCC34CCCN3CCC4)nc3c(F)c(-c4cncc5cccc(Cl)c45)ccc23)C[C@@H]1CC#N", "note": "[Example 163, (S)-2-(4-(7-(5-chloroisoquinolin-4-yl)-8-fluoro-2-((tetrahydro-1H-pyrrolizin-7a(5H)-yl)methoxy)quinazolin-4-yl)-1-(2-fluoroacryloyl)piperazin-2-yl)acetonitrile]", "IC50": 5}
{"smiles": "C=CC(=O)N1CCN(c2nc(OCC34CCCN3C[C@H](F)C4)nc3c(F)c(-c4cncc5cccc(Cl)c45)ccc23)C[C@@H]1CC#N", "note": "(stereo partly drawn) [Example 164, 2-((2S)-1-acryloyl-4-(7-(5-chloroisoquinolin-4-yl)-8-fluoro-2-((((2R,7aS)-2-fluorotetrahydro-1H-pyrrolizin-7a(5H))-yl)methoxy)quinazolin-4-yl)piperazin-2-yl)acetonitrile]", "IC50": 1.5}
{"smiles": "C=C(F)C(=O)N1CCN(c2nc(OC[C@@]34CCCN3C[C@H](F)C4)nc3c(F)c(-c4cncc5cccc(Cl)c45)ccc23)C[C@@H]1CC#N", "note": "[Example 165]", "IC50": 4}
{"smiles": "C=CC(=O)N1CCN(c2nc(OCC34CCCN3CCC4)nc3nc(-c4cccc5cccc(Cl)c45)ccc23)C[C@@H]1CC#N", "note": "[Example 258, (S)-2-(1-acryloyl-4-(7-(8-chloronaphthalen-1-yl)-2-((tetrahydro-1H-pyrrolizin-7a(5H)-yl)methoxy)pyridino[2,3-d]pyrimidin-4-yl)piperazin-2-yl)acetonitrile]", "IC50": 15}
